The source made the active and inactive calls. How the calls were made is not given here.

Chaperone protein DnaK (Escherichia coli (strain K12)), sequence (P0A6Y8 whole entry, looked up): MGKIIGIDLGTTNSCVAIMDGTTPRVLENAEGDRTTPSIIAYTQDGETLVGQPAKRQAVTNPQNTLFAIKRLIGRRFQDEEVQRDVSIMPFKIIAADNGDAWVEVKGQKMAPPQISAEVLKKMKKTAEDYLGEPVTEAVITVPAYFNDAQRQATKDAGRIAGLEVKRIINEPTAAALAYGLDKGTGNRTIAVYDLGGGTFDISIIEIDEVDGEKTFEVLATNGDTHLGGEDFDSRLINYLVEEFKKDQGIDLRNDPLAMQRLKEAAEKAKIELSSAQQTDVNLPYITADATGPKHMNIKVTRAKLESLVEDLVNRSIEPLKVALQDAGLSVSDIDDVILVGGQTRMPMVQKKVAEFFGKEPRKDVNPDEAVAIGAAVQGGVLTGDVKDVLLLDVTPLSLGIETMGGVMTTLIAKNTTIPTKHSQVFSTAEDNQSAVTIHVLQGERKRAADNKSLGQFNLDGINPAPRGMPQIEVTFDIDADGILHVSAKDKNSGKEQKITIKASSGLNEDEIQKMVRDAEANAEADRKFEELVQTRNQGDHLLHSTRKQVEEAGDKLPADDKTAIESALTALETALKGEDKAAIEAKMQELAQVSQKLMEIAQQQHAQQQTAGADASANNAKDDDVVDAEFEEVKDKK

This experiment has as its target Chaperone protein DnaK (Escherichia coli (strain K12)) (UniProt P0A6Y8). Description: E. coli DnaK SBD ligand binding – biophysical, NMR, chaperone (AID 1033). The settings on record: Purified DnaK SBD.
For the compound `Cn1c(O)c(/C=C2\C=CC=N2)c(=O)[nH]c1=S`, the Kd (in general, the free concentration of one partner at which half of the binding sites on the other are occupied at equilibrium, for simple one-to-one binding) was > 4 mM (inactive).

For the compound `Cn1cc(Cl)c(C(=O)Nc2ccc(F)cc2F)n1`, the Kd was > 4 mM (inactive).

As to `CC1=C(/C=C/C(C)=C/C=C/C(C)=C/C=C/C=C(C)/C=C/C=C(C)/C=C/C2=C(C)CCCC2(C)C)C(C)(C)CCC1`, the Kd was > 4 mM (inactive).

With `N[C@@H](Cc1cc(I)c(Oc2cc(I)c(O)c(I)c2)c(I)c1)C(=O)O`, the Kd was > 4 mM (inactive).

On to `Cn1cnc2nc3n(c2c1=O)CCC3`, for which the Kd was > 4 mM (inactive).

Take `CC(=O)NCS(=O)(=O)c1ccc(C)cc1`: the Kd was > 4 mM (inactive).

On to `Cc1cc(Cl)ccc1NC(=O)C(N)=O`, for which the Kd was > 4 mM (inactive).

Regarding `CS(=O)(=O)Nc1ccc(C(=O)N2CCCCC2)cc1`, the Kd was > 4 mM (inactive).

With `Cc1cc(NC(=O)CS(=O)(=O)c2ccccc2)no1`, the Kd is > 4 mM (inactive).

As to `C/C=C(/C)C(=O)O[C@H]1CC[C@@]2(C)[C@@H]3CC[C@H]4[C@]5(O)C[C@H](O)[C@@]6(O)[C@@H](CN7C[C@@H](C)CC[C@H]7[C@@]6(C)O)[C@]5(O)C[C@@]42OC13O`, the Kd is > 4 mM (inactive).

With `CCOC(=O)c1csc(C2COc3ccccc3O2)n1` (stereo unspecified), the Kd is > 4 mM (inactive).

For the compound `Cc1cc(C)n2nc(C(=O)NCc3ccco3)nc2n1`, the Kd is > 4 mM (inactive).

With `O=C(Nc1ccccc1)Nc1ccccc1`, the Kd is > 4 mM (inactive).

For `CC(=O)Nc1ccc2c(C)cc(=O)[nH]c2c1`, the Kd is > 4 mM (inactive).

Turning to `CS(=O)(=O)N1CCN(C(=O)c2ccccc2F)CC1`, the Kd was > 4 mM (inactive).

For `CC(=O)c1c(C)nc2ccccc2c1N`, the Kd is > 4 mM (inactive).

Turning to `Cc1ccc(-n2[nH]c(C)cc2=O)cc1`, the Kd was > 4 mM (inactive).

`Nc1ccc(NS(=O)(=O)c2ccc(N)cc2)cc1`: the Kd was > 4 mM (inactive).

Turning to `COc1ccccc1-c1noc(-c2ccncc2)n1`, the Kd is > 4 mM (inactive).

As to `COC(=O)c1[nH]c2ccccc2c1C(=O)OC`, the Kd was > 4 mM (inactive).

With `Cc1ccc(S(C)(=O)=O)s1`, the Kd is > 4 mM (inactive).

As for `CCOC(=O)c1c(C)nc2ncccn12`, the Kd was > 4 mM (inactive).

Regarding `O=C(O)CCC(=O)NCc1cccnc1`, the Kd was > 4 mM (inactive).

In the case of `O=C1CSC(=O)N1CN1CCOCC1`, the Kd is > 4 mM (inactive).

`COC(=O)c1c(SC)nc(-c2ccccc2)[nH]c1=O`: the Kd is > 4 mM (inactive).

Consider `Cc1cc(=O)[nH]c(N)n1`, for which the Kd is > 4 mM (inactive).

In the case of `Cc1ccc(Nc2nnns2)cc1C`, the Kd was > 4 mM (inactive).

On to `Oc1ccccc1N1CCOCC1`, for which the Kd was > 4 mM (inactive).

With `O=C(c1ccccc1)N1CCN(c2ccccc2F)CC1`, the Kd is > 4 mM (inactive).

Turning to `O=C(Nc1ccc2c(c1)OCO2)c1cccc(F)c1`, the Kd is > 4 mM (inactive).

For `COC(=O)Cc1cc(=O)n(-c2nc3ccccc3s2)[nH]1`, the Kd is > 4 mM (inactive).

On to `O=c1c2ccccc2[nH]c2ncccc12`, for which the Kd was > 4 mM (inactive).

Turning to `C[C@@H]1O[C@@H](O[C@H]2CC[C@]3(C=O)C4CC[C@]5(C)[C@@H](C6=CC(=O)OC6)CC[C@]5(O)C4CC[C@]3(O)C2)[C@H](O)[C@H](O)[C@H]1O` (stereo partly specified), the Kd was > 4 mM (inactive).

For `Cc1nc2ccc(C(=O)O)cc2nc1C`, the Kd is > 4 mM (inactive).

For `Cc1n[nH]c(C)c1CC(=O)O`, the Kd was > 4 mM (inactive).

On to `Cc1scc(C(=O)Nc2ccon2)c1-c1ccccc1`, for which the Kd is > 4 mM (inactive).

Take `Cn1c(=O)c2[nH]cnc2n(-c2ccccc2)c1=O`: the Kd was > 4 mM (inactive).

Regarding `CNC(=O)CC1Sc2ccccc2NC1=O` (stereo unspecified), the Kd is > 4 mM (inactive).

On to `NCc1ccc2c(c1)OCO2`, for which the Kd was > 4 mM (inactive).

Take `CCCc1ncc(C(O)c2cccc3ccccc23)n1C` (stereo unspecified): the Kd was > 4 mM (inactive).

As to `Fc1ccc(NC2=NCCS2)cc1Cl`, the Kd was > 4 mM (inactive).

For the compound `Cc1ccc(C(=O)N2CCC(C(N)=O)CC2)c(Cl)c1`, the Kd was > 4 mM (inactive).

As for `O=c1/c(=C/c2cccs2)sc2ncnn12`, the Kd was > 4 mM (inactive).

For `CC(=O)Oc1cc2c(c(C)c1OC(C)=O)CC=C1[C@@]2(C)CC[C@@]2(C)C3C[C@](C)(C(=O)O)CC[C@]3(C)CC[C@]12C` (stereo partly specified), the Kd was > 4 mM (inactive).

With `OCCNC(=S)Nc1ccccc1`, the Kd was > 4 mM (inactive).

`CC(C)(CO)NC(=O)c1ccccc1F`: the Kd was > 4 mM (inactive).

For `Nc1ccc2[nH]ncc2c1`, the Kd was > 4 mM (inactive).

For the compound `O=c1[nH]c(=O)n(-c2ccc(F)cc2)c(O)c1/C=C1/C=CC=N1`, the Kd was > 4 mM (inactive).

`Cc1cc(=O)n2[nH]c(C)cc2n1`: the Kd was > 4 mM (inactive).

For `NC(=O)CSCc1ccc(Br)cc1`, the Kd is > 4 mM (inactive).

Take `O=S1(=O)CCC2CC=CCC21` (stereo unspecified): the Kd was > 4 mM (inactive).

As for `CN(C)c1nc(N)nc(Cn2ccnc2)n1`, the Kd was > 4 mM (inactive).

In the case of `CCc1cc2c(SCC(=O)O)ncnc2s1`, the Kd was > 4 mM (inactive).

For `c1ccc(C2NCCc3[nH]cnc32)cc1` (stereo unspecified), the Kd was > 4 mM (inactive).

As for `CCS(=O)(=O)N1CCN(c2ccccc2F)CC1`, the Kd is > 4 mM (inactive).

With `Cc1cc(C)n(C2CCS(=O)(=O)C2)n1` (stereo unspecified), the Kd is > 4 mM (inactive).

For `CCOC(=O)c1sc(SC)c2c1CCCC2O` (stereo unspecified), the Kd is > 4 mM (inactive).

For the compound `CSc1ncc(CO)n1Cc1ccccc1`, the Kd is > 4 mM (inactive).

For the compound `CC(=O)Nc1cccc(N2CCCC2=O)c1`, the Kd is > 4 mM (inactive).

On to `O=C(O)C1CC(=O)N(CCc2ccc(Cl)cc2)C1` (stereo unspecified), for which the Kd is > 4 mM (inactive).

With `CN(C(=O)NC1CCS(=O)(=O)C1)C1CCCCC1` (stereo unspecified), the Kd was > 4 mM (inactive).

Consider `CC(=O)O[C@@H]1CC2C(C)(C)[C@H](O)C=C[C@]2(C)C2CC[C@]3(C)C(=CC(=O)O[C@H]3c3ccoc3)[C@@]21C` (stereo partly specified), for which the Kd was > 4 mM (inactive).

`Cc1nnsc1C(=O)Nc1ccc(C(N)=O)cc1`: the Kd is > 4 mM (inactive).

`CSc1ccc(/C=N/n2c(C)nnc2C)cc1`: the Kd was > 4 mM (inactive).

Regarding `CN1C(=O)Cc2cc(S(N)(=O)=O)ccc21`, the Kd was > 4 mM (inactive).

With `Oc1ccc(/C=C/c2cc(O)cc(O)c2)cc1`, the Kd is > 4 mM (inactive).

`NC(=S)CN1CCCC1=O`: the Kd is > 4 mM (inactive).

On to `Cc1nnsc1C(=O)N(C)c1ccccc1`, for which the Kd is > 4 mM (inactive).

As to `CC(=O)c1cccc(NC(=O)Nc2c(C)nn(C)c2C)c1`, the Kd was > 4 mM (inactive).

In the case of `C/C(N)=C/C(=O)N1CCCCC1`, the Kd was > 4 mM (inactive).

As to `CNC(=S)N1CCN=C1Nc1nc(C)cc(C)n1`, the Kd is > 4 mM (inactive).

For `O=C1C2C3C=CC(C3)C2C(=O)N1CCO` (stereo unspecified), the Kd was > 4 mM (inactive).

As for `CCOC(=O)c1ccc(Oc2ccc(C)nn2)cc1`, the Kd is > 4 mM (inactive).

For `CCC(C)C(=O)c1c(O)c(C)c2oc3c(C)c(O)c(C(=O)C(C)CC)c(O)c3c2c1O` (stereo unspecified), the Kd was > 4 mM (inactive).

With `COc1c2c(cc3cc[n+](C)cc13)OCO2`, the Kd was > 4 mM (inactive).

For the compound `N/N=C/c1cccnc1`, the Kd was > 4 mM (inactive).

With `Cc1cc(NC(=O)CCCn2cnc([N+](=O)[O-])n2)no1`, the Kd is > 4 mM (inactive).

Turning to `CC(C)n1c(-c2ccncc2)n[nH]c1=S`, the Kd was > 4 mM (inactive).

As to `COC(=O)C[C@H]1C2(C)CC34OC5(C)O[C@@]6([C@H](OC(C)=O)C(OC(C)=O)[C@]7(C)C(/C(=C(/O)C(C)C)C(=O)O[C@H]7c7ccoc7)[C@@]6(O5)[C@H](OC(C)=O)[C@@]3(O)C2OC(=O)C(C)C)[C@]14C` (stereo partly specified), the Kd is > 4 mM (inactive).

`O=C(O)C1CSC(c2ccc(Cl)cc2)N1` (stereo unspecified): the Kd is > 4 mM (inactive).

Regarding `OC1CCNC2CCCCC12` (stereo unspecified), the Kd was > 4 mM (inactive).

Consider `CC(=O)Nc1ccc2c(c1)CCCC2=O`, for which the Kd is > 4 mM (inactive).

Turning to `O=C(Nc1ncc2ccccc2n1)c1cccs1`, the Kd is less than 0.2 mM.

In the case of `Cn1cccc1C(=S)N1CCOCC1`, the Kd is > 4 mM (inactive).

Take `NC(=O)c1cccc2c1OCCO2`: the Kd was > 4 mM (inactive).

Consider `O=C(Nn1cnnc1)c1csc2c1CCCC2`, for which the Kd was > 4 mM (inactive).

With `NCc1csc2ccccc12`, the Kd was > 4 mM (inactive).

As to `C=C1C2=CC(=O)O[C@@H](c3ccoc3)[C@]2(C)CCC1[C@@]1(C)C=CC(=O)C(C)(C)[C@@H]1CC(=O)OC` (stereo partly specified), the Kd was > 4 mM (inactive).

`NC(=O)c1ccsc1N`: the Kd was > 4 mM (inactive).

In the case of `Cc1nc2ccc(NC(=O)N3CCOCC3)cc2s1`, the Kd is > 4 mM (inactive).

`CC[C@H]1CN2CCC1C[C@@H]2[C@@H](O)c1ccnc2ccc(OC)cc12` (stereo partly specified): the Kd was > 4 mM (inactive).

As to `CC(NC(=O)c1ccco1)C1CCCO1` (stereo unspecified), the Kd was > 4 mM (inactive).

In the case of `NCc1n[nH]c(=O)c2ccccc12`, the Kd was > 4 mM (inactive).

With `CC(=O)Oc1ccc2c(c1)c(C(C)=O)c(C)n2C`, the Kd was > 4 mM (inactive).

Regarding `C[C@H](CCC(=O)O)[C@H]1CCC2C3C(CC[C@@]21C)[C@@]1(C)CC[C@@H](O)C[C@H]1C[C@H]3O` (stereo partly specified), the Kd was > 4 mM (inactive).

On to `O=C(O)c1ccc(-n2cncn2)cc1`, for which the Kd is > 4 mM (inactive).

As to `Cc1nn(CC(=O)N2CCCCC2)c(=O)c2ccccc12`, the Kd was > 4 mM (inactive).

Consider `O=C1Cn2c(nc3ccccc32)N1c1ccccc1F`, for which the Kd was > 4 mM (inactive).

As to `O=C(O)CCN1CCOCC1`, the Kd is > 4 mM (inactive).

Regarding `CC1(C)CC2C1CCC1(C)OC1CCC2(C)O` (stereo unspecified), the Kd is > 4 mM (inactive).

Regarding `OCc1ccccc1O[C@@H]1O[C@H](CO)[C@@H](O)[C@H](O)[C@H]1O`, the Kd was > 4 mM (inactive).
